Source: patent US20250064834A1, “COMPOSITIONS AND METHODS FOR TREATMENT AND PREVENTION OF DISEASES UTILIZING TIRILAZAD SALTS” (priority 2022, published 2025)

Tested on: mini-explants from the dermoepidermal junction of the hoof
Test: In vitro study of hoof laminar mini-explants pre-incubated with tirilazad, then Bothrops alternatus venom, as a model for laminitis; histopathology (H-E, PAS)
Type: cell-based
Protocol: An in vitro study was conducted to analyze the protective effects of tirilazad mesylate on cellular degeneration as a result of Bothrops alternatus snake venom as a model for laminitis. Explant tissue samples were obtained from the dermoepidermal junction of the hoof of the right forelimb under nervous system block without the need for euthanasia.
Under sterile conditions, laminar cuts (mini-explants) were made of each explant and the tissue washed with physiological solution. The mini-explants were pre-incubated for 5 hours with tirilazad and then for 24 hours with Bothrops venom. Culture medium was as follows: Dulbecco's […] (DMEM, GIBCO-Invitrogen) with 10% heat-inactivated fetal bovine serum (FBS, GIBCO-Invitrogen), L-Glutamine (29.2 mg/mL), Penicillin (10,000 units/mL), and Streptomycin (10,000 μg/mL, GIBCO-Invitrogen) as antibiotics.
Histopathology: Tissues were processed with classical histological techniques, e.g., cutting by microtome (Minot) and stained with hematoxylin-eosin (H-E) and Periodic Acid Schiff (PAS) stains.

[1] = Tirilazad 1 μM (5 hours pre-incubation) + venom 75 μg/ml (24 hours), listed as tirilazad
[2] = Tirilazad 1 μM, no venom, listed as tirilazad
[3] = Tirilazad 3 μM (5 hours pre-incubation) + venom 75 μg/ml (24 hours)
[4] = Tirilazad 3 μM, no venom, listed as tirilazad
[5] = Tirilazad 10 μM (5 hours pre-incubation) + venom 75 μg/ml (24 hours), listed as tirilazad
[6] = Tirilazad 10 μM, no venom, listed as tirilazad
[7] = Tirilazad 20 μM (5 hours pre-incubation) + venom 75 μg/ml (24 hours)

In the case of C[C@@H]1C[C@H]2[C@@H]3CCC4=CC(=O)C=C[C@]4(C)C3=CC[C@]2(C)[C@H]1C(=O)CN1CCN(c2cc(N3CCCC3)nc(N3CCCC3)n2)CC1 [Tirilazad, 16α-methyl-21-[4-[2,6-bis(1-pyrrolidinyl)-4-pyrimidinyl]-1-piperazinyl]pregna-1,4,9(11)-triene-3,20-dione], the “Separation of Basement Membrane” value (Tirilazad 1 μM (5 hours pre-incubation) + venom 75 μg/ml (24 hours)) is reported as “No”, the “Cell Nuclei” value [1] is reported as “intense presence of altered epidermal cells” and the “Pyknosis or Karyopyknosis” value [1] is reported as “with nuclear pyknosis”. For the same compound, the “Separation of Basement Membrane” value [1] was “did not show separation of the basement membrane”, the “Pyknosis or Karyopyknosis” value (Tirilazad 1 μM, no venom) was “No” and the “Separation of Basement Membrane” value (Tirilazad 1 μM, no venom) was “No”. The “Cell Nuclei” value [2] was “epidermal cells were normal and showed preserved cytoplasmic and nuclear structure”, the “Separation of Basement Membrane” value [2] was “did not show separation of the basement membrane” and the “Cell Nuclei” value [3] was “intense presence of altered epidermal cells”. For the same compound, the “Pyknosis or Karyopyknosis” value [3] was “nuclear pyknosis predominating”, the “Separation of Basement Membrane” value [3] was “slight separation of the basement membrane” and the “Separation of Basement Membrane” value (Tirilazad 3 μM, no venom) was “No”. For the same compound, the “Cell Nuclei” value [4] was “slight epidermal cytoplasmic and nuclear alteration”, the “Separation of Basement Membrane” value [4] was “did not show separation of the basement membrane” and the “Separation of Basement Membrane” value (Tirilazad 10 μM (5 hours pre-incubation) + venom 75 μg/ml (24 hours)) was “No”. The “Cell Nuclei” value [5] was “Moderate presence of altered epidermal cells”, the “Pyknosis or Karyopyknosis” value [5] was “moderate nuclear pyknosis” and the “Separation of Basement Membrane” value [5] was “did not show separation of the basement membrane”. The “Pyknosis or Karyopyknosis” value (Tirilazad 10 μM, no venom) was “No”, the “Separation of Basement Membrane” value (Tirilazad 10 μM, no venom) was “No” and the “Cell Nuclei” value [6] was “epidermal cells were normal and showed preserved cytoplasmic and nuclear structure”. For the same compound, the “Separation of Basement Membrane” value [6] was “did not show separation of the basement membrane”, the “Cell Nuclei” value [7] was “intense presence of altered epidermal cells” and the “Pyknosis or Karyopyknosis” value [7] was “intense nuclear pyknosis”. For the same compound, the “Separation of Basement Membrane” value [7] was “intense separation of the basement membrane”, the “Cell Nuclei” value (Tirilazad 20 μM, no venom) was “epidermal cells were normal and showed preserved cytoplasmic and nuclear structure” and the “Pyknosis or Karyopyknosis” value (Tirilazad 20 μM, no venom) was “No”. The “Separation of Basement Membrane” value (Tirilazad 20 μM, no venom) was “intense separation of the basement membrane” and the “effect on cellular structure in hoof tissue” value (overall conclusion of the explant study) was “provides a protective and/or therapeutic effect”.
